Values of other authors, collected in patent US20140005280A1, “CARBOXYMETHYL STARCH AND CHITOSAN POLYELECTROLYTE COMPLEXES” (4413261 Canada Inc. (Spencer Canada), priority 2011, published 2014).

Conditions: US Pharmacopeia, 2000

solubility: slightly soluble in water
SMILES: CC(=O)Oc1ccccc1C(=O)O [aspirin, acetylsalicylic acid]
